# Test results taken from patent US8039438B2, “Synthetic peptides that cause F-actin bundling and block actin depolymerization” (The Regents of the University of California, priority 2003, dated 2011).
# Key:
# [1] = test system: dextran-labeled electroporated cells; experiment: Change in number of dextran-labeled cells after electroporation with peptide; type: cell-based; settings: for % change in cell number: dextran-labeled cells counted before and after 18 hrs incubation
# Protocol: Electroporated cells were treated with fluorescent dextran plus peptide so those cells receiving the peptide could be identified. Typically a very small number of cells successfully incorporate substance during electroporation, making it difficult to identify those receiving peptide. Typically one sees 10-20% incorporation. But, there is good evidence showing that if a cell incorporates one component in buffer, it will incorporate all components. Thus, dextran can be used to identify those cells receiving peptide. After electroporation of cells with fluorescent dextran and the active peptide SEQ ID NO: 12, the dextran-labeled cells were initially counted and then incubated for 18 hrs. After incubation overnight, the dextran-labeled cells were once again counted. The following Tables 4 and 5 show the average change in dextran-labeled cells after the cells are electroporated and the peptide has invaded the cell body. The cell numbers of the SS12 treated peptide seemed to fluctuate after incubation with various concentrations of the SS12 peptide.
# MDA 231 cells = experiment: Actin reorganization in MDA 231 cells electroporated with peptide, rhodamine-phalloidin stained; type: cell-based, human
# Protocol: Referring now to FIG. 2, it can be shown that treatment with an active peptide results in actin organization in human mammary epithelial tumor cells. MDA 231 cells were electroporated with SS1 (panel A) or SS12 (panel B), fixed, and rhodamine-phalloidin stained. Control epithelial tumor cells were treated with SS1 (SEQ ID NO: 9) resulting in no effect on actin-filled lamellipodia (or ruffling) characteristic of crawling cells.
# MDA 231 cells are a particularly aggressive tumor cell line crawling and moving from between tissues.
sequence,measurement,setting,value
GIVRKWISRFEVWPYL (SS12 active synthetic peptide),increase in cell population after incubation,[1]; compared with SS1 control peptide-treated cells,did not exhibit the expected increase in cell population
same,% change in cell number,[1],−12.5%
same,% change in cell number,[1]; peptide concentration 0.2 μM,+13.21%
same,% change in cell number,[1]; peptide concentration 1.0 μM,−1.5%
same,% change in cell number,[1]; peptide concentration 10.0 μM,−8.6%
same,cell movement,MDA 231 cells; MDA 231 cells after peptide treatment,ceased movement
same,effect on actin-filled lamellipodia,MDA 231 cells; MDA 231 cells electroporated with peptide,no longer have lamellipodia
